In brackets after ≈: the same amount, converted by molar mass.
Columns and labels:
[1] = phosphate buffer pH 7.4 with 10 % (v/v) ethanol; cited from earlier work
[2] = cited from earlier work
[3] = Solubility of DEX in vegetable oils with cosolvents (shaker, HPLC); assay type: physicochemical; settings: oil or lipid, thermodynamic from solid, 24 hours incubation
Experimental: After centrifugation, 200 μL of supernatant was diluted with 600 μL of tetrahydrofuran and 800 μL of acetonitrile in vials for the HPLC analysis. All samples were prepared in triplicates. Castor oil combined with 20 % (v/v) of isopropanol and castor oil with 20 % (v/v) of Capryol® 90 were chosen as the best formulations for the following experiments.
Samples from the solubility and partitioning studies were analysed on HPLC system Agilent 1100/1200 series connected to diode array detector adjusted to 241 nm. Kinetex C18 column (4.6 x 50 mm, particles 2.6 μm and pore size 100 Å) by Phenomenex (USA), heated to 40 °C, was used. The chromatograms were obtained with a gradient elution, where acetonitrile and buffer pH 2.0 were components of the mobile phase. Injector temperature was adjusted at 35 °C, the flow rate at 1.8 ml/min and sample injection volume at 10 μL. […] The two working standard solutions were obtained by further diluting the stock solution. […] The second standard solution was prepared by diluting 1 mL of stock solution in 100 mL acetonitrile. It was used for DEX assay in solutions composed of four other oils.

solubility at 24 h ([3]; castor oil with 20 % (v/v) Capryol 90, 37 °C): ~1200 µg/mL (≈ 3.06 mM) | solubility at 24 h ([3]; castor oil with 20 % (v/v) isopropanol, 37 °C): ~2300 µg/mL (≈ 5.86 mM)
SMILES: C[C@@H]1C[C@H]2[C@@H]3CCC4=CC(=O)C=C[C@]4(C)[C@@]3(F)[C@@H](O)C[C@]2(C)[C@@]1(O)C(=O)CO [DEX, Dexamethasone]
solubility of DEX [1]: 170 µg/mL | solubility in ethanol [2]: sparingly soluble | solubility in water [2]: practically insoluble
